Tests used:
neutrophil influx = test: Murine arachidonic acid-induced inflammation model: neutrophil influx in ear, myeloperoxidase activity (% Inh. MPO); format: in vivo; conditions: Mus musculus, female Balb/c mice, 30 mg/kg oral gavage, ear biopsy 3 h after topical arachidonic acid, number of determinations in parentheses
Procedure: (§1) Assay 4: Murine Arachidonic Acid-Induced Inflammation Model
(§2) LTA4H inhibitor compounds of the present invention were dissolved in 20% cyclodextran/H2O at a concentration of 3 mg/mL. The solutions were administered by oral gavage to female Balb/c mice weighing approximately 20 grams each (0.2 mL per mouse, 30 mg of LTA4H inhibitor compound per kg). Sixty minutes after being administered an LTA4 inhibitor, each mouse received topical application of 20 μL of arachidonic acid (100 mg/mL in acetone) to the left ear and 20 μL of acetone only to the right ear. After 3 h, the mice were sacrificed, blood was withdrawn in heparinized syringes, and 8 mm ear biopsies were taken. Ear biopsies were weighed to determine edema and then frozen at −80° C. until needed for determination of neutrophil influx.
Neutrophil influx was quantified by measuring the activity of myeloperoxidase (MPO), a neutrophil-specific enzyme. The ear biopsies were homogenized in 0.5 mL extraction buffer (0.3 M sucrose, 0.22% (w/v) hexadecyl trimethyl ammonium bromide (CTAB), and 2.5 mM citrate prepared from 0.5 M citrate stock solution (pH 5.0)), in a Fast-Prep-24 (MP™) (40 seconds at 6 mps). Debris was removed by centrifugation at 14000×g for 10 min. Aliquots of 10 μL of the resulting supernatant were added to wells of a microtiter plate, along with 90-μL aliquots of dilution buffer (10 mM citrate, 0.22% CTAB), followed by addition of 20 μL TMB liquid substrate system (Sigma Chemical Co.) to each sample well. The microtiter plate contents were held at room temperature until the sample with the highest concentration of MPO reached an absorbance value of 0.4 at 650 nm. The reaction was stopped by addition of 50 μL 1 M H2SO4 to each sample well, and the myeloperoxidase activity in each sample was determined from the absorbance at 405 nm. The background value from the right ear, treated only with acetone, was subtracted from that for the left ear, treated with arachidonic acid in acetone, for each animal. The percent inhibition of neutrophil influx (% Inh. MPO) by compounds of the invention was determined by comparison to animals treated identically, except that the solution administered by oral gavage was devoid of inhibitor compound.
(§3) The number of determinations is indicated in parentheses following each value

[1] = biological target: T1, recombinant human LTA4 hydrolase (rhLTA4H) (Homo sapiens, UniProt P09960); test: Recombinant human LTA4 hydrolase assay for LTA4 hydrolase inhibitor activity; format: biochemical; conditions: rhLTA4H, LTA4 substrate, LTB4 by immunoassay; single determination or average; read-out: IC50
T1 construct: made in house; host or cells: Spodoptera frugiperda (Sf-9) cells, recombinant baculovirus (pFastBac1)
T1 sequence (P09960 1-611): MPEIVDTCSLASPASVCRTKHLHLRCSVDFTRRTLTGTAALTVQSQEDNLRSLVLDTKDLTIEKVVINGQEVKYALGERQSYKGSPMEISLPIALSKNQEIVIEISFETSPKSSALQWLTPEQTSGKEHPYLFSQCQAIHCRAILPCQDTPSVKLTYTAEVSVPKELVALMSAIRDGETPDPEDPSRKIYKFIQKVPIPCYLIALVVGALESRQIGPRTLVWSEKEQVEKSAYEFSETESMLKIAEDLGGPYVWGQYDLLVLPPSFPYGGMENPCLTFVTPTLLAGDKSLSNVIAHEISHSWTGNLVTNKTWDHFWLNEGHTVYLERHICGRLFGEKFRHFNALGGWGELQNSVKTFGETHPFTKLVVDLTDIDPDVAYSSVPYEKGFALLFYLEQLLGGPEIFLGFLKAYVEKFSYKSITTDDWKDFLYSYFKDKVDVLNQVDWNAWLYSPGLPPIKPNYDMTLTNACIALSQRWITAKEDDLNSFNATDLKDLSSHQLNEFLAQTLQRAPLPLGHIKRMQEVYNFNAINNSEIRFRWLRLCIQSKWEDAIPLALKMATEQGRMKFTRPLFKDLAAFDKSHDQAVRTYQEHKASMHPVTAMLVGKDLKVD
Outline: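 Recombinant human LTA4H from baculovirus-infected Sf-9 cells (10 ng) pre-incubated 10 min at rt with compound (10% DMSO in dilutions), then reacted with free-acid LTA4 for 30 min at rt. LTB4 measured by ELISA; IC50 by nonlinear regression. Values are single determinations or averages.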

[2] = system: LTB4 production by calcium ionophore-stimulated murine blood; test: LTB4 production by calcium ionophore-stimulated murine blood for LTA4H inhibitor activity; format: cell-based, CD-1 mice; conditions: Mus musculus; murine blood diluted 1 in 15, calcium ionophore A23187, LTB4 by immunoassay; read-out: IC50
Outline: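 Heparinized CD-1 mouse blood pre-incubated with compound 15 min at 37° C, then stimulated with calcium ionophore A23187 (7 μg/mL final) for 30 min. LTB4 in supernatant measured by enzyme immunoassay; values are single or averaged determinations, with SD for n≥3.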

[3] = system: ex vivo stimulated LTB4 production; test: Murine arachidonic acid-induced inflammation model: ex vivo stimulated LTB4 production (% Inh. LTB4); conditions: Mus musculus; female Balb/c mice, 30 mg/kg oral gavage; blood taken 3 h after arachidonic acid, ex vivo A23187 stimulation; number of determinations in parentheses
Procedure: as §1, §2
One hundred-microliter aliquots of heparinized blood were added to wells of a microtiter plate, along with equal volumes of RPMI-1640 medium, and calcium ionophore A23187 was added to each sample well (final concentration=[…]). The microtiter plate contents were incubated for 30 min at 37° C. in a humidified incubator. The reaction was terminated by centrifugation (833×g, 10 min at 4° C.). Supernatants were analyzed for LTB4 by a commercially available enzyme-linked immunoassay (Cayman Chemical Co.) in accordance with the manufacturer's instructions. The percent inhibition of ex vivo stimulated LTB4 production (% Inh. LTB4) was determined by comparison to animals treated identically except that the solution administered by oral gavage was devoid of inhibitor compound.
as §3

Row | Structure (SMILES) | inhibition in vivo at 30 mg/kg (neutrophil influx) [%] | IC50 [1] [nM] | IC50 [2] [nM] | inhibition at 30 mg/kg [3] [%]
1 | O=C1C[C@@H](O)CN1C1CCN(CCOc2ccc(Oc3nc4ncccc4s3)cc2)CC1 [Example 270, (4R)-4-Hydroxy-1-(1-{2-[4-([1,3]thiazolo[4,5-b]pyridin-2-yloxy)phenoxy]ethyl}piperidin-4-yl)pyrrolidin-2-one] | 60.6 | 10 | 120 | 75.9
2 | OC1(c2ccccc2)CCN(CCOc2ccc(Oc3nc4ncccc4s3)cc2)CC1 [Example 27, 4-Phenyl-1-{2-[4-([1,3]thiazolo[4,5-b]pyridin-2-yloxy)phenoxy]ethyl}piperidin-4-ol] | 83.7 | 32 | 160 | 78.2
3 | CC(=O)N[C@H]1C[C@H]2CC[C@@H](C1)N2Cc1ccc(Oc2nc3ncc(Cl)cc3s2)cc1 [Example 287, meso-endo-N-[8-{4-[(6-Chloro[1,3]thiazolo[4,5-b]pyridin-2-yl)oxy]benzyl}-8-azabicyclo[3.2.1]oct-3-yl]acetamide] | 86.7 | 3 | 110 | 89.8
4 | NC(=O)N1C[C@@H]2C[C@H]1CN2CCOc1ccc(Oc2nc3ncccc3s2)cc1 [Example 15, (1S,4S)-5-{2-[4-([1,3]Thiazolo[4,5-b]pyridin-2-yloxy)phenoxy]ethyl}-2,5-diazabicyclo[2.2.1]heptane-2-carboxamide] | 47.7 | 29 ± 5.2 | 310 | 61.9
5 | c1cnc2nc(Oc3ccc(CCN4CCOCC4)cc3)sc2c1 [Example 59, 2-[4-(2-Morpholin-4-ylethyl)phenoxy][1,3]thiazolo[4,5-b]pyridine] | 89.9 | 9 | 19 | 92.7
6 | NC(=O)C1CCN(Cc2ccc(Oc3nc4nccnc4s3)cc2)CC1 [Example 285, 1-[4-([1,3]Thiazolo[4,5-b]pyrazin-2-yloxy)benzyl]piperidine-4-carboxamide] | 12.3 | 94 | 300 | 19.7
7 | CC(=O)N1C[C@@H]2C[C@H]1CN2Cc1ccc(Oc2nc3ncc(Cl)cc3s2)cc1 [Example 122, 2-(4-{[(1S,4S)-5-Acetyl-2,5-diazabicyclo[2.2.1]hept-2-yl]methyl}phenoxy)-6-chloro[1,3]thiazolo[4,5-b]pyridine] | 66.9 | 48 | 270 | 72
8 | CC(=O)N1C[C@@H]2C[C@H]1CN2Cc1ccc(Oc2nc3ncccc3s2)cc1 [Example 127, 1-{(1S,4S)-5-[4-([1,3]Thiazolo[4,5-b]pyridin-2-yloxy)benzyl]-2,5-diazabicyclo[2.2.1]hept-2-yl}ethanone] | 87.6 | 5 | 7.5 | 91.5
9 | O=C1CCCN1C1CCN(CCc2ccc(Oc3nc4ncccc4s3)cc2)CC1 [Example 46, 1-(1-{2-[4-([1,3]Thiazolo[4,5-b]pyridin-2-yloxy)phenyl]ethyl}piperidin-4-yl)pyrrolidin-2-one] | 75.3 | 13 | 130 | 86.5
10 | Cc1ccnc2nc(Oc3ccc(CN4CCC(C(N)=O)CC4)cc3)sc12 [Example 282, 1-{4-[(7-Methyl[1,3]thiazolo[4,5-b]pyridin-2-yl)oxy]benzyl}piperidine-4-carboxamide] | 61.1 | 66 | 155 | 62.8
11 | CC(=O)N1C[C@@H]2C[C@H]1CN2Cc1ccc(Oc2nc3nccnc3s2)cc1 [Example 120, 2-(4-{[(1S,4S)-5-Acetyl-2,5-diazabicyclo[2.2.1]hept-2-yl]methyl}phenoxy)[1,3]thiazolo[4,5-b]pyrazine] | 48.1 | 110 ± 37 | 150 | 57.8

Source: patent US20110190503A1, “Thiazolopyridin-2-yloxy-phenyl and thiazolopyrazin-2-yloxy-phenyl amines as modulators of leukotriene A4 hydrolase” (Janssen Pharmaceutical NV, priority 2008, published 2011)
